# Assay results from US11702404B2, “GLP-1R modulating compounds” (priority 2019, dated 2023).
# Read-outs that look alike come from different tables or passages of the source.
# How the values were obtained:
# [1] = molecular target: GLP-1R (Homo sapiens, UniProt P43220); test: GLP-1R activation: cAMP increase in CHO cells stably expressing GLP-1R; type: cell-based; settings: read-out: EC50
# [2] = Microsomal stability, human liver microsomes (predicted hepatic clearance); settings: predicted from in vitro microsomal stability data
# [3] = cAMP increase, CHO cells stably expressing GLP-1R, 10 point dose response, 30 minutes incubation
# GLP-1R, sequence (P43220 24-463): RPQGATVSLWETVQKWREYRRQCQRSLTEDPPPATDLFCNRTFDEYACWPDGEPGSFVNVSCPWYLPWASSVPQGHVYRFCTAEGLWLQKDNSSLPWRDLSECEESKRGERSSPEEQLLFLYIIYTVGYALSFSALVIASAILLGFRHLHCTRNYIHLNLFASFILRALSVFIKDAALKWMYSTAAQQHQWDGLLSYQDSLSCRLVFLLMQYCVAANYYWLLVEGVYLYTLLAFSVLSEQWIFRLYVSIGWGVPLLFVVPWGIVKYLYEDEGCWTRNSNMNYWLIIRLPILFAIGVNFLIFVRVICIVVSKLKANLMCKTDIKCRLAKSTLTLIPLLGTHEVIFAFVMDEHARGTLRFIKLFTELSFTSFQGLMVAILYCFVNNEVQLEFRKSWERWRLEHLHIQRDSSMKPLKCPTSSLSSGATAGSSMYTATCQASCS
SMILES,"EC50 [1, 3] [nM]",Predicted Hepatic Clearance (Pred. Cl.) [2] [mL/min/kg],EC50 [1] [nM]
"COCCn1c(Cc2cc(F)c(-c3cccc(OCc4cc(F)c(C#N)cc4F)n3)cc2F)nc2ccc(C(=O)O)cc21 [Example 565, 2-(4-(6-((4-cyano-2,5-difluorobenzyl)oxy)pyridin-2-yl)-2,5-difluorobenzyl)-1-(2-methoxyethyl)-1H-benzo[d]imidazole-6-carboxylic acid]",4.91,6,
"COCCn1c(Cc2c(F)cc(-c3ccnc(OCc4ccc(C#N)cc4F)n3)cc2F)nc2ccc(C(=O)O)cc21 [Example 378, 2-(4-(2-((4-cyano-2-fluorobenzyl)oxy)pyrimidin-4-yl)-2,6-difluorobenzyl)-1-(2-methoxyethyl)-1H-benzo[d]imidazole-6-carboxylic acid]",12.4,5.5,
"N#Cc1ccc(COc2cccc(-c3cc(F)c(Cc4nc5ccc(C(=O)O)cc5n4CC4COC4)cc3F)n2)c(F)c1 [Example 307, 2-(4-(6-((4-cyano-2-fluorobenzyl)oxy)pyridin-2-yl)-2,5-difluorobenzyl)-1-(oxetan-3-ylmethyl)-1H-benzo[d]imidazole-6-carboxylic acid]",7.96,5.33,
Cc1cc(Cn2c(Cc3ccc(-c4cccc(OCc5ccc(C#N)cc5F)n4)cc3F)nc3ccc(C(=O)O)cc32)no1 [Example 606],178,1.83,
"CC(=O)N1CC[C@@H]1Cn1c(Cc2cc(F)c(-c3cccc(OCc4ccc(C#N)cc4F)n3)cc2F)nc2ccc(C(=O)O)cc21 (single isomer, unassigned) [Example 689]",,5.17,0.56
N#Cc1ccc(COc2cccc(-c3cc(F)c(Cc4nc5ccc(C(=O)O)cc5n4[C@@H]4COC[C@@H]4O)cc3F)n2)c(F)c1 [Example 614],0.79,1.83,
"N#Cc1ccc(COc2nccc(-c3ccc(Cc4nc5ccc(C(=O)O)nc5n4CC4(CF)CC4)cc3F)n2)c(F)c1 [Example 302, 2-(4-(2-((4-cyano-2-fluorobenzyl)oxy)pyrimidin-4-yl)-3-fluorobenzyl)-3-((1-(fluoromethyl)cyclopropyl)methyl)-3H-imidazo[4,5-b]pyridine-5-carboxylic acid]",1.21,2.67,
"COCCn1c(Cc2ccc(-c3cccc(OCc4ccccc4C(F)F)n3)cc2F)nc2ccc(C(=O)O)cc21 [Example 507, 2-(4-(6-((2-(difluoromethyl)benzyl)oxy)pyridin-2-yl)-2-fluorobenzyl)-1-(2-methoxyethyl)-1H-benzo[d]imidazole-6-carboxylic acid]",361,19.2,
N#Cc1cc(F)c(COc2nccc(-c3cc(F)c(Cc4nc5c(F)cc(C(=O)O)cc5n4C[C@@H]4CCO4)cc3F)n2)cc1F [Example 677],0.06,1.83,
"COCCn1c(Cc2ccc(-c3cccc(OCc4ccc(Cl)c(C(C)C)c4)n3)cc2F)nc2ccc(C(=O)O)cc21 [Example 156, 2-(4-(6-((4-chloro-3-isopropylbenzyl)oxy)pyridin-2-yl)-2-fluorobenzyl)-1-(2-methoxyethyl)-1H-benzo[d]imidazole-6-carboxylic acid]",51.5,5.5,
"COCCn1c(Cc2ccc(-c3ccc(C)c(OCc4ccc(C#N)cc4F)n3)cc2)nc2ccc(C(=O)O)cc21 (single isomer, unassigned) [Example 24, 2-(4-(6-((4-cyano-2-fluorobenzyl)oxy)-5-methylpyridin-2-yl)benzyl)-1-(2-methoxyethyl)-1H-benzo[d]imidazole-6-carboxylic acid]",1720,2.17,
COCCn1c(Cc2cc(F)c(-c3cccc(OCc4ccc(Cl)nc4F)n3)cc2F)nc2ccc(C(=O)O)cc21 [Example 823],19.8,1.83,
